In US7772190B2, “Didepsipeptide-based endoparasiticides, new didepsipeptides and process for preparing the same” (Bayer Animal Health GmbH, priority 1995, dated 2010):

How the values were obtained:
Haemonchus contortus = test: In vivo nematode test Haemonchus contortus/sheep; conditions: experimentally infected sheep; orally and/or intravenously as pure active compound; complete cessation of oviposition (worm eggs in faeces) after treatment
Method: Haemonchus contortus/Sheep
Sheep experimentally infected with Haemonchus contortus were treated after expiry of the prepatency time of the parasite. The active compounds were administered orally and/or intravenously as pure active compound.
(§1) The degree of effectiveness is determined by quantitatively counting the worm eggs excreted with the faeces before and after treatment.
(§2) Complete cessation of oviposition after treatment means that the worms have been expelled or are so damaged that they no longer produce eggs (effective dose).
Active compounds tested and effective doses can be seen from the following tables.

[1] = test system: Trichostrongylus colubriformis; test: In vivo nematode test Trichostrongylus colubriformis/sheep; conditions: experimentally infected sheep; orally and/or intravenously as pure active compound; complete cessation of oviposition (worm eggs in faeces) after treatment
Method: Trichostrongylus colubriformis/Sheep
Sheep experimentally infected with Trichostrongylus colubriformis were treated after expiry of the prepatency time of the parasite. The active compounds were administered orally and/or intravenously as pure active compound.
as §1, §2
Active compounds tested and effective doses can be seen from the following table.

Structure (SMILES)	Effective dose (Haemonchus contortus) [mg/kg]	Effective dose [1] [mg/kg]
COC(=O)C(C)OC(=O)C(C)N(C)C(=O)N(C)C(=O)N(C)C [Example 2, Methyl N-methyl-N-trimethylallophanoyl-L-alanyl-D-lactate]	5	5
COC(=O)C1CCCCN1C(=O)C(C)OC(=O)C(C)N(C)C(=O)N(C)C(=O)N(C)C [Example 8, N-methyl-N-trimethylallophanoyl-L-alanyl-D-lactyl-L-homoproline Methyl Ester]	5	–
